Where two headings read alike, the source gives them in different places. Bounds are passed on as bounds.

Data set [1] deals with RdFucI. The format is biochemical, Raoultella sp. KDH 14.
The nature of data set [2]: pH effect on RdFucI activity for fuculose. The format is biochemical, Raoultella sp. KDH 14.
Data set [3] relates to RdFucI. Description: Substrate specificity of RdFucI. The format is biochemical, Raoultella sp. KDH 14. The following applies: aldose and ketose substrates tested. The source says:
In general, sugar isomerases show reactivity for various sugars. As a result of testing with various aldoses (L-fucose, D-arabinose, D-altrose, D-galactose, D-mannose and D-glucose) and ketose substrates (L-fuculose, D-ribulose, D-psicose, D-tagatose and D-fructose), the highest activity was shown against L-fuculose (115.3 U/mg) and D-ribulose (127.3 U/mg), showing much higher activities compared to activities for the other tested aldose and ketose substrates.

Data set [4] concerns the molecule itself. Description: crystal structure, self-association of subunits.
Data set [5] in a line: Reversible reaction between L-fucose and L-fuculose by RdFucI. The format is biochemical, Raoultella sp. KDH 14. The following applies: 10 mM substrate, 20 mM sodium phosphate pH 7, 1.5 μg RdFucI, 30° C., 1 mM MnCl2. The protocol:
In order to identify what kind of reaction RdFucI favored in a reaction between fucose and fuculose, a reversible reaction of the recombinant enzyme was investigated over time. For this purpose, 10 mM L-fucose (FIG. 4a) or L-fuculose (FIG. 4b) included in 20 mM sodium phosphate (pH7) was used as a substrate, and was each reacted with 1.5 μg of RdFucI at 30° C. in the presence of 1 mM MnCl2, and L-fucose was experimentally quantified. In contrast, L-fuculose was expressed as a calculated value.

Data set [6] can be described thus: Temperature effect on RdFucI activity for fuculose. Format: biochemical, Raoultella sp. KDH 14. The text has this:
(80% or more of the maximum activity) (FIG. 5a).

Where [7] appears, read: effect of metal ion on RdFucI activity, fuculose as substrate, Control = 100.

As to `[Cl-].[Cl-].[Mg+2]` [MgCl2], in the data set on RdFucI [1] (RdFucI), the “effect of metal ion on enzyme activity (in words)” value (from here on “effect of metal ion”) is given as “increase the enzyme activity”. Besides, the “Relative activity (%)” value in the data set on RdFucI [1] (setting [7]) was 533 ± 31%.

Regarding `[Cl-].[Cl-].[Zn+2]` [ZnCl2], the “effect of metal ion” value in the data set with RdFucI [1] (RdFucI) is “increase the enzyme activity”. In addition, the “Relative activity (%)” value in the data set with RdFucI [1] (setting [7]) is recorded as 159 ± 4%.

As to Tris-HCl [Tris-HCl buffer], in data set [2] (pH 7, 8 and 9, 50 mM, 40° C.), the “RdFucI activity in the buffer versus other buffer types at the same pH (in words)” value is reported as “much lower”.

In the case of `[Cl][Ni][Cl]` [NiCl2], in the data set with RdFucI [1] (setting [7]), the “Relative activity (%)” value is listed as 91 ± 13%.

In the case of `[Cl][Cu][Cl]` [CuCl2], the “effect of metal ion” value with RdFucI [1] (RdFucI) is “inhibit the enzyme activity”. The “Relative activity (%)” value in the data set with RdFucI [1] (setting [7]) amounted to 58 ± 7%.

On to `[Cl][Cd][Cl]` [CdCl2], for which, in the data set on RdFucI [1] (RdFucI), the “effect of metal ion” value is “increase the enzyme activity”. In addition, the “Relative activity (%)” value in the data set with RdFucI [1] (setting [7]) is listed as 183 ± 9%.

As for `[Cl-].[Cs+]` [CsCl2], in the data set with RdFucI [1] (setting [7]), the “Relative activity (%)” value is reported as 101 ± 16%.

Turning to `[Ca+2].[Cl-].[Cl-]` [CaCl2], the “effect of metal ion” value in the data set on RdFucI [1] (RdFucI) is recorded as “inhibit the enzyme activity”. Further, the “Relative activity (%)” value with RdFucI [1] (setting [7]) stood at 64 ± 8%.

Consider `[Cl][Mn][Cl]` [MnCl2], for which the “effect of metal ion” value in the data set on RdFucI [1] (RdFucI) is listed as “increase the enzyme activity”. In addition, the “increase of enzyme activity in the presence of the metal ion” value with RdFucI [1] (RdFucI, fuculose as substrate) is “about 7 fold”. For the same molecule, the “Relative activity (%)” value with RdFucI [1] (setting [7]) is listed as 738 ± 70%.

Regarding `O=C(O)CN(CCN(CC(=O)O)CC(=O)O)CC(=O)O` [EDTA], the “Relative activity (%)” value with RdFucI [1] is 77 ± 12%.

As for `O=S(=O)([O-])[O-].[Li+].[Li+]` [LiSO4], the “Relative activity (%)” value with RdFucI [1] (setting [7]) was 101 ± 15%.

In the case of `C[C@H](O)[C@@H](O)[C@@H](O)C(=O)CO` [L-fuculose], the “activity of RdFucI against substrate” value in the data set on RdFucI [3] is on record as 115.3 U/mg.

`[Cl][Fe]([Cl])[Cl]` [FeCl3]: the “effect of metal ion” value with RdFucI [1] (RdFucI) is “inhibit the enzyme activity”. For the same molecule, in the data set on RdFucI [1] (setting [7]), the “Relative activity (%)” value is given as 74 ± 3%.

As for `O=C(CO)[C@H](O)[C@H](O)CO` [D-ribulose], in the data set with RdFucI [3], the “activity of RdFucI against substrate” value is recorded as 127.3 U/mg.

Take `[Cl-].[Cl-].[Co+2]` [CoCl2]: in the data set with RdFucI [1], the “Relative activity (%)” value was determined as 353 ± 83% and the “effect of metal ion” value is “increase the enzyme activity”.

B1: L-fucose isomerase derived from Raoultella sp. KDH 14 strain (enzyme)
chain: MKRISLPKIGIRPVIDGRRMGVRESLEAQTMNMAKATAALISEKLRHACGAQIECVIADTCIAGMAESAACEEKFSRQNVGVTITVTPCWCYGSETIDMDPLRPKAIWGFNGTERPGAVYLAAALAAHSQKGIPAFSIYGHDVQDADDTTIPADVEEKLLRFARAGLAVASMKGKSYLSVGGVSMGIAGSIVDHNFFESWLGMKVQAVDMTELRRRIDQKIYDEVELEMALAWADKNFRYGEDQNAQHYKRDEEQSRAVLKESLLMAMCIRDMMQGNEKLAEKGLLEESLGYNAIAAGFQGQRHWTDQYPNGDTAEALLNSSFDWNGVREPFVVATENDSLNGVAMLMGHQLTGTAQVFADVRTYWSPDAVERVTGQPLTGLAEHGIIHLINSGSAALDGSCQQRDEEGKPTMKPHWEISQKEADACLAATEWCPAIHEYFRGGGYSSRFLTEGGVPFTMTRVNLIKGLGPVLQIAEGWSVELPKAMHDQLDARTNSTWPTTWFAPRLTGKGPFADVYSVMANWGANHGVLTIGHVGADFITLAAMLRIPVCMHNVEEGKIYRPSSWSAHGMDTEGQDYRACQNYGPLYKR
notes: also called RdFucI; Rd FucI
Regarding B1, the binding result in data set [4] was “binds”.

B2: RdFucI: L-fucose isomerase of Raoultella sp. KDH 14, amino acid sequence SEQ ID NO: 1, 591 amino acids (protein)
chain: B1 chain
modifications: Raoultella sp. KDH 14
For B2, the “reaction rate of reverse reaction (L-fuculose to L-fucose) versus forward reaction” value in data set [5] is “about 5 fold”. In addition, the “relative activity, of the maximum activity, at 30, 40 and 50° C.” value in data set [6] (10 mM substrate, 1.5 μg enzyme, pH 7) was at least 80%. Further, the “temperature of highest activity” value in data set [6] (10 mM substrate, 1.5 μg enzyme, pH 7, 10 to 80° C.) amounted to 40 °C. In data set [6] (L-fuculose as substrate), the “enzyme activity out of the 30 to 50° C. range” value is reported as “less than 50%”. In data set [2] (sodium acetate, sodium phosphate and glycine-NaOH buffers), the “relative maximum activity at pH 6 to 11” value is at least 70%.
